The structures appear in SMILES notation.

The assay concerns asymmetric di-methyl PABP1 in RKO cells. Nature of the assay: In Cell Western (ICW) for asymmetric di-methyl PABP1 and DNA content in RKO cells. In kind it is cell-based. The procedure, abridged: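 RKO cells treated with compound for 48 h at 37 °C, then fixed, methanol-permeabilized and stained for asymmetric di-methyl PABP1 (800 nm) with DRAQ5 DNA stain (700 nm). Signal ratio normalized to DMSO and 20 μM reference-compound controls. IC50 from nine 3-fold dilutions in triplicate.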

The mark [1] stands for this setting: Homo sapiens, RKO, In Cell Western.

For `CNCCN(C)Cc1cccc(-c2nc(C(=O)NCc3cn4ccsc4n3)c3cnn(C4CC4)c3n2)c1` [Compound 180], half-maximal inhibition under setting [1] (IC50) was put at 0.897 µM. That is a sub-micromolar value.
For the compound `CNCCN(C)Cc1cccc(-c2cc(C(=O)N(C)Cc3ccccn3)c3cnn(C(C)C)c3n2)c1` [Compound 300], half-maximal inhibition under setting [1] (IC50) was put at 6.38 µM.
On to `CNCCN(C)Cc1cccc(-c2cc(C(=O)NCc3c(C)cc(C)[nH]c3=O)c(C)c3[nH]ncc23)c1` [Compound 372], for which the IC50 (48 hours) is not below 20 µM.
Compound `CNCCN(C)Cc1cccc(-c2cc(C(=O)NCc3ccncc3)c3cnn(C(C)C)c3n2)c1` [Compound 182] registered an IC50 under setting [1] of 3.55 µM.
Turning to `CNCCN(C)Cc1cccc(-c2cc(C(=O)NCc3c(C)cc(C)[nH]c3=O)c3cnn(C(C)C)c3n2)c1` [Compound 368], the half-maximal inhibitory concentration (IC50) (48 hours) was found to be 1.01 µM.
As to `CNCCN(C)Cc1ccc(-c2cc(C(=O)NCc3c(C)cc(C)[nH]c3=O)c(C)c3n[nH]cc23)cc1` [Compound 362], under “Homo sapiens, RKO, 48 h”, the half-maximal inhibitory concentration (IC50) is not below 20 µM.
`CC(C)n1ncc2c(C(=O)N(C)CC3CCOCC3)cc(-c3cccc(CN(C)CCN)c3)nc21` [Compound 256] gave an IC50 under setting [1] of 9.56 µM.
With `Cc1cc(C)c(CNC(=O)c2cc(-c3cccc(CN(C)CCN)c3)nc3c2cnn3C(C)C)c(=O)[nH]1` [Compound 360], it took 0.934 µM to reach half-maximal inhibition (48 hours) (IC50).
The compound `CN(CCN)Cc1cccc(-c2ccc(C(=O)NCC3CCOCC3)c(N(C)CC3CC3)c2)c1` [Compound 263] had a 50% inhibitory concentration (IC50) under setting [1] of 20 µM.
In the case of `CNCCN(C)Cc1cccc(-c2cc(C(=O)NCc3c(C)cc(C)[nH]c3=O)c3cnn(C(C)C)c3c2)c1` [Compound 367], half-maximal inhibition (48 hours) (IC50) was put at 6.48 µM.

These data come from US20170280720A1, “ARGININE […] INHIBITORS AND USES THEREOF” (EPIZYME, INC., priority 2014, published 2017).
